Results reported in patent US20090264425A1, “CHEMICAL COMPOUNDS” (PFIZER LIMITED, priority 2004, published 2009).
pIC50: −log10 of the molar value.

Target: T1, HIV-1 reverse transcriptase (Human immunodeficiency virus type 1 group M subtype B, UniProt P04585)
T1 construct: purified recombinant HIV-1 reverse transcriptase (RT, EC, 2.7.7.49); made in house; host or cells: Escherichia coli
Assay: Inhibition of HIV-1 reverse transcriptase enzyme ([3H]-Flashplate enzyme assay, 384-well)
Type: biochemical
Details: purified recombinant HIV-1 RT expressed in Escherichia Coli; 5% final DMSO
Excerpt: The activity of the compounds of the invention as reverse transcriptase inhibitors may be measured using the following assay.
Inhibition of HIV-1 Reverse Transcriptase Enzyme
The reverse transcriptase activity of the compounds of the invention may be assayed as follows. Using the purified recombinant HIV-1 reverse transcriptase (RT, EC, 2.7.7.49) obtained by expression in Escherichia Coli, a 384-well plate assay system was established for assaying a large number of samples using the [3H]-Flashplate enzyme assay system (NEN-SMP 410A) following the manufacturer's recommendations. The compounds were dissolved in 100% DMSO and diluted with the appropriate buffer to a 5% final DMSO concentration. The inhibitory activity was expressed in percent inhibition relative to the DMSO control.

Structure (SMILES)	pIC50
N#Cc1cc(Cl)cc(Oc2cc(Cl)ccc2OCC(=O)N2CCCc3cc(S(N)(=O)=O)ccc32)c1 [Example 1, 1-{[4-Chloro-2-(3-chloro-5-cyanophenoxy)phenoxy]acetyl}-1,2,3,4-tetrahydroquinoline-6-sulfonamide]	7.58
N#Cc1cc(Cl)cc(Oc2cc(Cl)ccc2OCC(=O)Nc2ccc(S(N)(=O)=O)cc2Cl)c1 [Example 9, N-[4-(Aminosulfonyl)-2-chlorophenyl]-2-[4-chloro-2-(3-chloro-5-cyanophenoxy)phenoxy]acetamide]	8.22
N#Cc1cc(Cl)cc(Oc2cc(Cl)ccc2OCC(=O)N2CCc3ccc(S(=O)(=O)N4CCOCC4)cc3C2)c1 [Example 16]	6.27
Cc1cc(CN(C)C(=O)COc2cc(Cl)ccc2Oc2cc(Cl)cc(C#N)c2)on1 [Example 25]	5.66
Cc1nc(S(N)(=O)=O)ccc1NC(=O)COc1ccc(Cl)cc1Sc1cc(Cl)cc(C#N)c1 [Example 46, N-[6-(Aminosulfonyl)-2-methylpyridin-3-yl]-2-{4-chloro-2-[(3-chloro-5-cyanophenyl)thio]phenoxy}acetamide]	7.56
Cc1cnccc1NC(=O)COc1cc(Cl)ccc1Oc1cc(Cl)cc(C#N)c1 [Example 50]	8.25
